Data: publication PMC3267046 (Structure(London, England:1993), 2012)

Legend:
Format in all cases: binding
[1] = target: T1, nfa18080 (Nocardia farcinica, UniProt Q5YYT7); experiment: crystal structure, […] Å
T1 construct: gene NFA_18080; full-length (density starts at residue 5)
T1 sequence (Q5YYT7 1-144): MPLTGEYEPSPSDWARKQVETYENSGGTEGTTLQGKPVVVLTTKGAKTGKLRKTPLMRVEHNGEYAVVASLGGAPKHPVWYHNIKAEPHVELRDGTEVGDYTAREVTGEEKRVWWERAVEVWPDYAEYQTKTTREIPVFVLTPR

[2] = target: T2, Ddn (deazaflavin-dependent nitroreductase, Rv3547) (Mycobacterium tuberculosis, UniProt P9WP15); experiment: cocrystal structures (Holo-1 […] Å, Holo-2 […] Å); Trp fluorescence quenching Kd; HSQC NMR; set-up: […]; full-length Ddn / MBP-Ddn fusion (Kd)
[3] = target: T3, nfa33440 (Nocardia farcinica, UniProt Q5YUF0); experiment: cocrystal structure, […] Å; HSQC NMR
T3 construct: gene NFA_33440; full-length (density starting at residue 6)
T3 sequence (Q5YUF0 1-147): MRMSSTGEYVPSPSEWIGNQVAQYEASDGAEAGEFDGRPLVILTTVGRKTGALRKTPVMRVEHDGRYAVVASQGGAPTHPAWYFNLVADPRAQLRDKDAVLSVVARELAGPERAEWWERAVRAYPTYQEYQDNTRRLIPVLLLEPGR

[4] = target: T2, Ddn (deazaflavin-dependent nitroreductase, Rv3547); experiment: intrinsic tryptophan fluorescence quenching; also steady-state kinetics (KM […]); set-up: full-length Ddn / MBP-Ddn fusion

T2 sequence (P9WP15 whole entry, the tested form may be a part): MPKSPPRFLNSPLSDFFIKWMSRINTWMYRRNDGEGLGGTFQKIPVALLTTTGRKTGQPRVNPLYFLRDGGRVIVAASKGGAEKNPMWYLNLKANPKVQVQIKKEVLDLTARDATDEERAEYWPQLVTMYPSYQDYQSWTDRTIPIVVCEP

## C[C@H](OP(=O)(O)OC[C@@H](O)[C@@H](O)[C@@H](O)Cn1c2nc(=O)[nH]c(=O)c-2cc2ccc(O)cc21)C(=O)N[C@@H](CCC(=O)N[C@@H](CCC(=O)O)C(=O)O)C(=O)O [F420]
[1]
  crystal structure, 1.50 Å: nfa18080 from N. farcinica, was solved by X-ray crystallography in the presence of F420
[2]
  Kd: 1 µM
[3]
  cocrystal structure, 1.80 Å; HSQC NMR: a cocrystal of nfa33440 with F420 confirmed that the overall structure and coenzyme binding are very similar

## O=[N+]([O-])c1cn2c(n1)OC[C@@H](OCc1ccc(OC(F)(F)F)cc1)C2 [PA-824, (6S)-2-nitro-6-[4-(trifluoromethoxy)benzyl]oxy-6,7-dihydro-5H-imidazo[2,1-b][1,3]oxazine]
[4]
  Kd: 31 µM
